Laboratory results from DBAASP.
Values after ≈ are worked out from the molar mass of the structure shown.

Columns and labels:
Test in all cases: ≥ marks a high value that may be exact or a test limit, other limits are often not marked, values filed in µg/mL are converted to µM
Candida tropicalis = system: Candida tropicalis
[1] = system: Phytophthora nicotianae PG344
Bacillus megaterium Bm11 = system: Bacillus megaterium Bm11
Micrococcus luteus = system: Micrococcus luteus
Mammaliicoccus lentus = system: Mammaliicoccus lentus
Staphylococcus aureus = system: Staphylococcus aureus
Yersinia pestis KIM pYV = system: Yersinia pestis KIM pYV
[2] = system: Escherichia coli ATCC 25922
[3] = system: Escherichia coli CMCC 44102
[4] = system: Brucella abortus 9.49 (per-)
[5] = system: Staphylococcus aureus ΔmprF
[6] = system: Staphylococcus aureus ΔmprFpRBsyn
[7] = system: Staphylococcus aureus CMCC 26003
[8] = system: Pseudomonas aeruginosa CUN 4158-02
[9] = system: Staphylococcus aureus ATCC 43300
[10] = system: Staphylococcus epidermidis ATCC 12228
[11] = system: Acinetobacter baumannii ATCC 19606
[12] = system: Pseudomonas aeruginosa ATCC 27853
[13] = system: Bordetella bronchiseptica CUN 11844-99
[14] = system: Enterococcus faecalis ATCC 29212
[15] = system: Staphylococcus aureus NCTC 8325
[16] = system: Enterobacter cloacae HNTCC 53001
[17] = system: Proteus mirabilis ATCC 25933
[18] = system: Candida albicans ATCC 90028
[19] = system: Staphylococcus epidermidis RP62A
[20] = system: Staphylococcus aureus T7/20
[21] = system: Klebsiella pneumoniae KK3 9904
Escherichia coli W3110 = system: Escherichia coli W3110
[22] = system: Streptococcus gordonii Challis DL1
[23] = system: Streptococcus sanguinis NY101
[24] = system: Streptococcus mutans UA159
[25] = system: Pseudomonas aeruginosa PAK
[26] = system: Streptococcus sobrinus ATCC 33478
[27] = system: Streptococcus mitis ATCC 903
Enterococcus faecalis = system: Enterococcus faecalis
[28] = system: Pseudomonas aeruginosa K799
[29] = system: Salmonella enterica subsp. enterica serovar Typhimurium ATCC 14028s
[30] = system: Pseudomonas aeruginosa H374
Escherichia coli KF130 = system: Escherichia coli KF130
Escherichia coli KF111 = system: Escherichia coli KF111
[31] = system: Pseudomonas aeruginosa H744
[32] = system: Staphylococcus epidermidis
Escherichia coli = system: Escherichia coli
Escherichia coli UB1005 = system: Escherichia coli UB1005

`CC(C)C[C@H](N)C(=O)N[C@H](C(=O)N[C@@H](CCCN=C(N)N)C(=O)NCC(=O)N[C@H]1CSSC[C@@H](C(=O)N[C@@H](Cc2ccccc2)C(=O)N[C@H](C(=O)N[C@@H](CCCN=C(N)N)C(N)=O)C(C)C)NC(=O)[C@@H]2CCCN2C(=O)[C@H](CCCCN)NC(=O)[C@@H]2CCCN2C(=O)[C@@H]2CCCN2C(=O)[C@H](Cc2ccc(O)cc2)NC(=O)[C@H](CO)NC(=O)[C@H](CCCCN)NC(=O)[C@H]([C@@H](C)O)NC(=O)[C@H](Cc2c[nH]c3ccccc23)NC1=O)C(C)C` [LVRGCWTKSYPPKPCFVR] was tested. Which MIC (Candida tropicalis) did it give?
Its MIC is 11 µM (≈ 23.5 µg/mL).

What about the MIC [1] of the same compound?
The MIC was at least 75 µM.

What about the MIC (Bacillus megaterium Bm11) of the same compound?
Its MIC is 20 µM (≈ 42.7 µg/mL).

What about the MIC (Micrococcus luteus) of the same compound?
Its MIC is 10 µM (≈ 21.3 µg/mL).

And the MIC (Mammaliicoccus lentus)?
Its MIC is at least 50 µM.

For `CC[C@H](C)[C@H](NC(=O)[C@H](CCCN=C(N)N)NC(=O)[C@H](CCCN=C(N)N)NC(=O)[C@H](CC(C)C)NC(=O)[C@H](Cc1ccccc1)NC(=O)[C@@H](NC(=O)[C@H](CCCN=C(N)N)NC(=O)[C@H](CCSC)NC(=O)[C@@H](NC(=O)[C@H](CCCCN)NC(=O)[C@H](CCCCN)NC(=O)[C@H](CS)NC(=O)[C@@H](NC(=O)CNC(=O)[C@H](CCCN=C(N)N)NC(=O)[C@H](CC(C)C)NC(=O)[C@@H](NC(=O)[C@@H](N)CCCCN)[C@@H](C)CC)C(C)C)[C@@H](C)CC)[C@@H](C)O)C(=O)N[C@@H](CO)C(=O)N[C@@H](CCCCN)C(=O)N[C@@H](CC(=O)O)C(=O)N[C@H](C(=O)N[C@@H](CC(C)C)C(=O)N[C@H](C(=O)NCC(=O)N[C@@H](CCCCN)C(=O)N[C@@H](CCCCN)C(N)=O)[C@@H](C)O)[C@@H](C)CC` [KILRGVCKKIMRTFLRRISKDILTGKK], which MIC (Staphylococcus aureus) is on record?
The MIC was 20 µM (≈ 64 µg/mL).

And the MIC (Yersinia pestis KIM pYV)?
The MIC was at least 79.9 µM.

What about the MIC [2] of the same compound?
Its MIC is 5 µM (≈ 16 µg/mL).

And the MIC [3]?
Its MIC is 4 µM (≈ 12.8 µg/mL).

And the MIC [4]?
The MIC was 9.99 µM (≈ 32 µg/mL).

What about the MIC [5] of the same compound?
The MIC was 2.5 µM (≈ 8 µg/mL).

What about the MIC [6] of the same compound?
The MIC was 2.5 µM (≈ 8 µg/mL).

And the MIC [7]?
Its MIC is 2 µM (≈ 6.4 µg/mL).

And the MIC [8]?
Its MIC is 9.99 µM (≈ 32 µg/mL).

What about the MIC [9] of the same compound?
The MIC was 79.9 µM (≈ 256 µg/mL).

And the MIC [10]?
The MIC was 2 µM (≈ 6.4 µg/mL).

What about the MIC [11] of the same compound?
Its MIC is 0.624 µM (≈ 2 µg/mL).

And the MIC [12]?
The MIC was 8 µM (≈ 25.6 µg/mL).

What about the MIC [13] of the same compound?
Its MIC is 1.25 µM (≈ 4 µg/mL).

`CC[C@H](C)[C@H](NC(=O)CN)C(=O)N[C@@H](CCSC)C(=O)N[C@@H](CO)C(=O)N[C@@H](CC(C)C)C(=O)N[C@@H](Cc1ccccc1)C(=O)N[C@@H](CCCCN)C(=O)NCC(=O)N[C@H](C(=O)N[C@@H](CC(C)C)C(=O)N[C@@H](CCCCN)C(=O)N[C@H](C(=O)N[C@@H](C)C(=O)NCC(=O)N[C@@H](CCCCN)C(=O)N[C@@H](Cc1cnc[nH]1)C(=O)N[C@H](C(=O)N[C@@H](C)C(=O)NCC(=O)N[C@@H](CO)C(=O)N[C@@H](CC(C)C)C(=O)N[C@H](C(=O)N[C@@H](CC(=O)O)C(=O)N[C@@H](CCC(N)=O)C(=O)N[C@@H](CC(C)C)C(=O)N[C@@H](CCCCN)C(=O)N[C@H]1CSSC[C@@H](C(=O)O)NC(=O)CNC(=O)CNC(=O)[C@H]([C@@H](C)O)NC(=O)[C@H]([C@@H](C)CC)NC(=O)[C@H](CCCCN)NC1=O)C(C)C)C(C)C)[C@@H](C)O)C(C)C` [GIMSLFKGVLKTAGKHVAGSLVDQLKCKITGGC] was tested. Which MIC [14] did it give?
The MIC was 25 µM (≈ 84 µg/mL).

And the MIC [15]?
The MIC was 12.5 µM (≈ 42 µg/mL).

What about the MIC [2] of the same compound?
Its MIC is 3 µM (≈ 10.1 µg/mL).

And the MIC [16]?
Its MIC is 6 µM (≈ 20.2 µg/mL).

What about the MIC [17] of the same compound?
Its MIC is at least 100 µM.

And the MIC [18]?
The MIC was at least 100 µM.

And the MIC [19]?
Its MIC is 12.5 µM (≈ 42 µg/mL).

What about the MIC [20] of the same compound?
Its MIC is 25 µM (≈ 84 µg/mL).

What about the MIC [12] of the same compound?
The MIC was 6 µM (≈ 20.2 µg/mL).

What about the MIC [21] of the same compound?
The MIC was 6 µM (≈ 20.2 µg/mL).

Which results are given for `NCCCC[C@H](NC(=O)[C@H](Cc1c[nH]c2ccccc12)NC(=O)[C@@H](N)Cc1c[nH]c2ccccc12)C(=O)N[C@@H](CC(=O)O)C(=O)N[C@@H](Cc1c[nH]c2ccccc12)C(=O)N[C@@H](Cc1c[nH]c2ccccc12)C(=O)N[C@@H](CCC(=O)O)C(=O)N[C@@H](CCCN=C(N)N)C(=O)N[C@@H](Cc1c[nH]c2ccccc12)C(N)=O` [WWKDWWERW]?
MIC (Escherichia coli W3110): ≥ 338 µM; MIC (Staphylococcus aureus): > 338 µM; MIC [22]: ≥ 338 µM; MIC [23]: ≥ 338 µM; MIC [24]: ≥ 338 µM; MIC [25]: ≥ 338 µM; MIC [26]: ≥ 338 µM; MIC [27]: ≥ 338 µM; MIC (Enterococcus faecalis): ≥ 338 µM

Which results are given for `CC[C@H](C)[C@H](NC(=O)[C@@H]1CCCN1C(=O)[C@H](CCCCN)NC(=O)[C@H](CC(C)C)NC(=O)[C@H](C)NC(=O)[C@@H](NC(=O)[C@H](Cc1cnc[nH]1)NC(=O)[C@H](Cc1ccccc1)NC(=O)[C@@H](NC(=O)[C@@H](NC(=O)[C@H](CCCN=C(N)N)NC(=O)[C@@H](NC(=O)[C@@H]1CCCN1C(=O)[C@H](CO)NC(=O)[C@H](CCCCN)NC(=O)[C@H](Cc1ccccc1)NC(=O)[C@@H](NC(=O)[C@H](CCCN=C(N)N)NC(=O)[C@H](CC(C)C)NC(=O)[C@H](Cc1ccccc1)NC(=O)[C@H](CO)NC(=O)[C@H](CCCCN)NC(=O)[C@H](Cc1c[nH]c2ccccc12)NC(=O)[C@@H](N)CCCCN)[C@@H](C)O)C(C)C)[C@@H](C)O)C(C)C)[C@@H](C)O)C(=O)N[C@@H](CO)C(=O)N[C@@H](CO)C(=O)O` [KWKSFLRTFKSPVRTVFHTALKPISS]?
MIC [28]: 5.22 µM (≈ 16 µg/mL); MIC (Staphylococcus aureus): > 20.9 µM; MIC [29]: 2.61 µM (≈ 8 µg/mL); MIC [30]: 5.22 µM (≈ 16 µg/mL); MIC (Escherichia coli KF130): 1.31 µM (≈ 4 µg/mL); MIC (Escherichia coli KF111): 1.31 µM (≈ 4 µg/mL); MIC [31]: 5.22 µM (≈ 16 µg/mL); MIC [32]: 5.22 µM (≈ 16 µg/mL); MIC (Escherichia coli): 0.653 µM (≈ 2 µg/mL); MIC (Escherichia coli UB1005): 0.653 µM (≈ 2 µg/mL)
